In patent US7491827B2, “Aryl sulfonamides useful as inhibitors of chemokine receptor activity” (Millennium Pharmaceuticals, Inc., priority 2003, dated 2009):

Target: T1, cloned human CCR8 receptor stably expressed in L1.2 cells (Homo sapiens, UniProt P51685)
T1 construct: expressed in transfected cells
Experiment: whole cell binding screen: inhibition of biotinylated human I309 binding to CCR8 (FMAT 8100 HTS)
Conditions: Ki of compounds to inhibit I-309 binding to CCR8, L1.2/hCCR8 cells, biotinylated human I-309, 10 point concentration response starting at 10 μM
Method in brief: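 L1.2 murine pre-B cells stably expressing human CCR8 (4.0×10^5 cells/mL) in HBSS/HEPES/fatty-acid-free BSA/azide buffer were mixed with biotinylated human I309 and compounds for 0.5 h, read by FMAT fluorescence. 10-point curves from 10 μM final; percent inhibition normalized to no-inhibitor and 100 nM unlabeled I309 controls.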

T1 sequence (P51685 whole entry): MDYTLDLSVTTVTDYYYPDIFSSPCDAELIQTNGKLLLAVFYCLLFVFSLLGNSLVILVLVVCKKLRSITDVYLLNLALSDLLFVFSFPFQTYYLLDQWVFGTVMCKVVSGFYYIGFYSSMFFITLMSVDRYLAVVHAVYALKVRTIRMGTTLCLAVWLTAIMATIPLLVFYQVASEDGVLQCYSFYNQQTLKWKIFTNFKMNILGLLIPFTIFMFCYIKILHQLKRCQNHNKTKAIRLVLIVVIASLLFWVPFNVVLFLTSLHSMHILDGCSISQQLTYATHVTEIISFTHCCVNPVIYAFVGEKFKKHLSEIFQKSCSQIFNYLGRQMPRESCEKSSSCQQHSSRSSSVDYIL

Structure (SMILES) | Ki
CNC(=O)N1CCC(NS(=O)(=O)c2ccc(NC(=O)c3ccccc3C)c3ccccc23)CC1 [Compound C-41, 4-[4-(2-Methyl-benzoylamino)-naphthalene-1-sulfonylamino]-piperidine-1-carboxylic acid methylamide] | < 500 nM

Same assay, conditions: L1.2/hCCR8 cells, biotinylated human I-309, 10 point concentration response starting at 10 μM; read-out: Ki of compounds to inhibit I-309 binding to CCR8

Structure (SMILES) | Ki
CCNC(=O)N1CCCC(NS(=O)(=O)c2ccc(NC(=O)c3ccccc3C)c3ccccc23)C1 (racemic) [Compound C-113, (±)-3-[4-(2-Methyl-benzoylangno)-naphthalene-1-sulfonylamino]-piperidine-1-carboxylic acid ethylamide] | < 500 nM
CCCC(=O)N1CC[C@@H](NS(=O)(=O)c2ccc(NC(=O)c3ccccc3C)c3ccccc23)[C@@H](C)C1 (single isomer, unassigned) [Compound C-140, cis-N-[4-(1-butyryl-3-methyl-piperidin-4-ylsulfamoyl)-naphthalen-1-yl]-2-methyl-benzamiide] | < 500 nM
Cc1ccccc1C(=O)Nc1ccc(S(=O)(=O)N[C@@H]2CCN(Cc3ccccc3)C[C@H]2C)c2ccccc12 (racemic) [Compound A-23, (±)-trans-N-[4-(1-Benzyl-3-methyl-piperidin-4-ylsulfamoyl)-naphthalen-1-yl]-2-methyl-benzamide] | < 500 nM
CCOC(=O)N1CCC(NS(=O)(=O)c2cc3c(c(NC(=O)c4ccccc4C)c2)CCCC3)CC1 [Compound H-59, 4-[4-(2-Methyl-benzoylamino)-5,6,7,8-tetrahydro-naphthalene-2-sulfonylamino]-piperidine-1-carboxylic acid ethyl ester] | < 1000 nM
CC(C)NC(=O)N1CCC(NS(=O)(=O)c2ccc(NC(=O)c3ccccc3)c3ccccc23)CC1 [Compound C-2, 4-(4-Benzoylamino-naphthalene-1-sulfonylamino)-piperidine-1-carboxylic acid isopropyl amide] | < 500 nM
Cc1ccccc1C(=O)Nc1ccc(S(=O)(=O)NC2CCN(C(=O)CN(C)C)CC2)c2c1CCCC2 [Compound E-17, N-{4-[1-(2-Dimethylandno-acetl)-piperidin-4-ylsulfamoyl]-5,6,7,8-tetrahydro-naphthalen-1-yl}-2-methyl-benzamide] | < 500 nM
Cc1ccccc1C(=O)Nc1ccc(S(=O)(=O)NC2CCN(C(=O)OC(C)(C)C)CC2)c2c1CCC2 [Compound H-66, 4-[7-(2-Methyl-benzoylamino)-indane-4-sulfonylamino]-piperidine-1-carboxylic acid tert-butyl ester] | < 1000 nM
CCOC(=O)N1CCC(NS(=O)(=O)c2ccc(CNCc3ccc(OC)cc3)c3ccccc23)CC1 [Compound G-10, 4-{4-[(4-Methoxy-benzylamino)-methyl]-naphthalene-1-sulfonylamino}-piperidine-1-carboxylic acid ethyl ester] | < 500 nM
CC(=O)N1C[C@@H](C)[C@@H](NS(=O)(=O)c2ccc(NC(=O)c3ccccc3C)c3ccccc23)[C@@H](C)C1 [Compound C-73, (±)-(cis,cis)-N-[4-(1-Acetyl-3,5-dimethyl-piperidin-4-ylsulfamoyl)-naphthalen-1-yl]-2-methyl-benzamide] | < 1000 nM
Cc1ccccc1C(=O)Nc1ccc(S(=O)(=O)NC2CCNCC2)c2ccccc12 [Compound C-36, 2-Methyl-N-[4-(piperidin-4-ylsulfamoyl)-naphthalen-1-yl]-benzamide] | < 500 nM
CCOC(=O)N1CCC(NS(=O)(=O)c2cccc3c(NC(=O)C4CCCCC4)c(C)ccc23)CC1 [Compound H-22, 4-[5-(Cyclohexanecarbonyl-amino)-6-methyl-naphthalene-1-sulfonylamino]-piperidine-1-carboxylic acid ethyl ester] | < 1000 nM
CCOC(=O)N1CCC(NS(=O)(=O)c2cccc3c(NC(=O)c4cccc(C)c4)cccc23)CC1 [Compound H-13, 4-[5-(3-Methyl-benzoylamino)-naphthalene-1-sulfonylamino]-piperidine-1-carboxylic acid ethyl ester] | < 30000 nM
Cc1ccccc1C(=O)Nc1ccc(S(=O)(=O)NC2CCN(C(=O)N(C)C)CC2)c2c1CCCC2 [Compound E-10, 4-[4-(2-Methyl-benzoylamino)-5,6,7,8-tetrahydro-naphthalene-1-sulfonylamino]-piperidine-1-carboxylic acid dimethylamide] | < 500 nM
CCCC(=O)N1CC[C@@H](NS(=O)(=O)c2ccc(NC(=O)c3ccccc3C)c3ccccc23)[C@@H](C)C1 (single isomer, unassigned) [Compound C-141, cis-N-[4-(1-butyryl-3-methyl-piperidin-4-ylsuffamoyl)-naphthalen-1-yl]-2-methyl-benzamide] | < 1000 nM
CCOC(=O)N1CCC(NS(=O)(=O)c2ccc(NC(=O)c3ccccc3C)c3ccccc23)C(C)(C)C1 (racemic) [Compound C-20, (±)-3,3-Dimethyl-4-[4-(2-methyl-benzoylamino)-naphthalene-1-sulfonylamino]-piperidine-1-carboxylic acid ethyl ester] | < 500 nM
Cc1ccccc1C(=O)Nc1ccc(S(=O)(=O)NC2CCOCC2)c2c1CCCC2 [Compound E-23, 2-Methyl-N-[4-(tetrahydro-pyran-4-ylsulfamoyl)-5,6,7,8-tetrahydro-naphthalen-1-yl]-benzamide] | < 500 nM

Structure (SMILES) | Ki
CCOC(=O)N1CCC(NS(=O)(=O)c2ccc(CNCc3ccccc3Cl)c3ccccc23)CC1 [Compound G-21, 4-{4-[(2-Chloro-benzylamino)-methyl]-naphthalene-1-sulfonylamino}-piperidine-1-carboxylic acid ethyl ester] | < 500 nM
O=C(Nc1ccc(S(=O)(=O)NC2CCN(C(=O)N3CCOCC3)CC2)c2ccccc12)c1ccccc1 [Compound C-4, N-{4-[1-(Morpholine-4-carbonyl)-piperidin-4-ylsulfamoyl]-naphthalen-1-yl}-benzamide] | < 500 nM
Cc1ccccc1C(=O)Nc1ccc(S(=O)(=O)NC2CCCN(C(=O)N(C)C)C2)c2c1CCCC2 (racemic) [Compound E-30, (±)-3-[4-(2-Methyl-benzoylamino)-5,6,7,8-tetrahydro-naphthalene-1-sulfonylamino]-piperidine-1-carboxylic acid dimethylamide] | < 500 nM
CCCC(=O)N1CC[C@H](NS(=O)(=O)c2ccc(NC(=O)c3cccnc3C)c3ccccc23)[C@@H](C)C1 (racemic) [Compound D-10, (±)-(trans)-N-[4-(1-Butyryl-3-methyl-piperidin-4-ylsulfamoyl)-naphthalen-1-yl]-2-methyl-nicotinamide] | < 500 nM
CCOC(=O)N1CCC(NS(=O)(=O)c2ccc(CNCc3cccnc3)c3ccccc23)CC1 [Compound G-12, 4-(4-{[(Pyridin-3-ylmethyl)-amino]-methyl}-naphthalene-1-sulfonylamino)-piperidine-1-carboxylic acid ethyl ester] | < 500 nM
CCCC(=O)N1CCC(NS(=O)(=O)c2ccc(NC(=O)c3ccccc3C)c3c2CCCC3)CC1 [Compound E-1, N-[4-(1-Butyryl-piperidin-4-ylsulfamoyl)-5,6,7,8-tetrahydro-naphthalen-1-yl]-2-methyl-benzamide] | < 500 nM
CCOC(=O)N1CCC(NS(=O)(=O)c2ccc(NC(=O)c3ccccc3C)c3c2CCCC3)CC1 [Compound E-8, 4-[4-(2-Methyl-benzoylamino)-5,6,7,8-tetrahydro-naphthalene-1-sulfonylamino]-piperidine-1-carboxylic acid ethyl ester] | < 500 nM
CCCC(=O)N1CC[C@H](NS(=O)(=O)c2ccc(NC(=O)c3cccnc3C)c3ccccc23)[C@H](C)C1 (racemic) [Compound D-3, (±)-(cis)-N-[4-(1-Butyryl-3-methyl-piperidin-4-ylsulfamoyl)-naphthalen-1-yl]-2-methyl-nicotinamide] | < 500 nM
CC(C)(C)OC(=O)N1CCC(NS(=O)(=O)c2ccc(NC(=O)c3cccnc3)c3ccccc23)CC1 [Compound B-20, 4-{4-[(Pyridine-3-carbonyl)-amino]-naphthalene-1-sulfonylamino}-piperidine-1-carboxylic acid tert-butyl ester] | < 1000 nM
O=C(Nc1ccc(S(=O)(=O)NC2CCNCC2)c2ccccc12)c1c(F)cccc1C(F)(F)F [Compound C-107, 2-Fluoro-N-[4-(piperidin-4-ylsulfamoyl)-naphthalen-1-yl]-6-trifluoromethyl-benzamide] | < 30000 nM
CN1CCCC(C(=O)Nc2ccc(S(=O)(=O)NC3CCN(C(=O)OC(C)(C)C)CC3)c3ccccc23)C1 (stereo not drawn) [Compound B-23] | < 30000 nM
COc1ccc(NS(=O)(=O)c2ccc(NC(=O)c3ccc([N+](=O)[O-])cc3)c3ccccc23)cc1 [Compound B-3, N-[4-(4-Methoxy-phenylsulfamoyl)-naphthalen-1-yl]-4-nitro-benzamide] | < 30000 nM
COc1ccc(NS(=O)(=O)c2ccc(NC(=O)c3ccccc3OC)c3ccccc23)cc1 [Compound B-6, 2-Methoxy-N-[4-(4-methoxy-phenylsulfamoyl)-naphthalen-1-yl]-benzamide] | < 30000 nM
CCOC(=O)N1CC[C@H](NS(=O)(=O)c2ccc(NC(=O)c3cccnc3C)c3ccccc23)[C@@H](C)C1 (racemic) [Compound D-9, (±)-(trans)-3-Methyl-4-{4-[(2-methyl-pyridine-3-carbonyl)-amino]-naphthalene-1-sulfonylamino}-piperidine-1-carboxylic acid ethyl ester] | < 500 nM
CN(C)C(=O)N1CCC(NS(=O)(=O)c2ccc(C(=O)NC3CCCCC3)c3ccccc23)CC1 [Compound F-6, 4-(4-Cyclohexylcarbamoyl-naphthalene-1-sulfonylamino)-piperidine-1-carboxylic acid dimethylamide] | < 500 nM
Cc1ccccc1C(=O)Nc1ccc(S(=O)(=O)NC2CCCCC2)c2c1CCCC2 [Compound E-9, N-(4-Cyclohexylsulfamoyl-5,6,7,8-tetrahydro-naphthalen-1-yl)-2-methyl-benzamide] | < 500 nM
